The test system of this assay is asymmetric di-methyl PABP1 in RKO cells. The experiment in a line: RKO methylation assay, In Cell Western (ICW) for asymmetric di-methyl PABP1. The format is cell-based. To be noted: Cellular potencies, ICW PABP1me2a. In short, it runs like this: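 In-cell Western on fixed RKO cells after 48 h compound exposure: anti-asymmetric di-methyl PABP1 signal at 800 nm over DRAQ5 DNA signal at 700 nm. Percent inhibition set between DMSO wells and wells with 20 μM reference compound; IC50 curves fitted in triplicate.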

For orientation: IC50 means the midpoint of a concentration-inhibition curve.

For the setting “Homo sapiens, RKO”, `CNCC(O)COc1cccc(-c2nc(-c3c(C)noc3C)c(C)c(N3CCO[C@H](CN(C)C(=O)OC)C3)n2)c1` (some centres unmarked) [Example 127-1a] gave a half-maximal inhibitory concentration (IC50) of under 5 µM. Where the note is “Homo sapiens, RKO”, `CNCC(O)COc1ccc(Cl)c(-c2nc(NC[C@@H]3CCCO3)c(C)c(-c3c(C)noc3C)n2)c1` (some centres unmarked) [Example 7-3] had an IC50 of under 5 µM.

For the setting “Homo sapiens, RKO”, `CNC[C@@H](O)COc1ccc(Cl)c(-c2nc(-c3c(C)noc3C)c(C)c(N3Cc4cccc(F)c4C3)n2)c1` [Example 267-3] registered an IC50 of under 5 µM. Turning to `CNCC(O)COc1cccc(-c2nc(C3CCNCC3)cc(N(C)C3CCOCC3)n2)c1` (centres unmarked) [Example 615-1a], the IC50 (Homo sapiens, RKO) was in the range of 10 to 20 µM. In the case of `CNCC(O)COc1cccc(-c2nc(Nc3nccn3C)c(C)c(-c3c(C)noc3C)n2)c1` (centres unmarked) [Example 18-3], the concentration for half-maximal inhibition (IC50) (Homo sapiens, RKO) is 10 to 20 µM.

Regarding `CNC[C@@H](O)COc1ccc(Cl)c(-c2nc(-c3c(C)noc3C)c(C)c(N3Cc4cn(S(C)(=O)=O)nc4C3)n2)c1` [Example 293-3], under “Homo sapiens, RKO”, the half-maximal inhibitory concentration (IC50) was under 5 µM. In the case of `CCO[C@H]1CCC[C@H]1Nc1nc(-c2cc(OC[C@H](O)CNC)ccc2Cl)nc(-c2c(C)noc2C)c1C` [Example 242-3], the IC50 (Homo sapiens, RKO) was under 5 µM. Consider `CNCC(O)COc1cccc(-c2nc(N[C@H]3[C@@H]4CN(C(=O)OC)C[C@@H]43)c(C)c(-c3c(C)noc3C)n2)c1` (some centres unmarked) [Example 282-1a], for which the IC50 (Homo sapiens, RKO) is under 5 µM. Still for that read-out and setting: then `CNCC(O)COc1cccc(-c2nc(Nc3ncc(C)cn3)cc(N(C)C3CCOCC3)n2)c1` (centres unmarked) [Example 513-1a], with 5 to 10 µM. The compound `CNCC(O)COc1cccc(-c2nc(NC3CCN(CC(F)F)C3)c(C)c(-c3c(C)noc3C)n2)c1` (centres unmarked) [Example 195-1a] came in with an IC50 (Homo sapiens, RKO) of under 5 µM. Still for that read-out and setting: then `CCS(=O)(=O)N1CCC(CNc2nc(-c3cccc(OCC(O)CNC)c3)nc(-c3c(C)noc3C)c2C)CC1` (centres unmarked) [Example 192-1a], with under 5 µM. In the case of `CNCC(O)COc1cccc(-c2nc(-c3c(C)noc3C)cc(N(CCOC)CCOC)n2)c1` (centres unmarked) [Example 52-1], the IC50 (Homo sapiens, RKO) lay in the range of 10 to 20 µM.

As for `CNCC(O)COc1cccc(-c2nc(N[C@H]3COC(=O)C3)c(C)c(-c3c(C)noc3C)n2)c1` (some centres unmarked) [Example 267-1a], the IC50 (Homo sapiens, RKO) was 10 to 20 µM. As for `CNCC(O)COc1cccc(-c2nc(-c3c(C)noc3C)cc(N3CCNC(C(F)(F)F)C3)n2)c1` (centres unmarked) [Example 131-1a], the 50% inhibitory concentration (IC50) (Homo sapiens, RKO) is under 5 µM.

Turning to `Cc1noc(C)c1-c1cc(NC2CCOCC2)nc(-c2cccc(OC[C@H](O)CN)c2)n1` [Example 16-1a], the IC50 (Homo sapiens, RKO) is 5 to 10 µM. The same measure, in the same setting: the result for `CNCC(O)COc1cccc(-c2nc(N[C@@H]3CCOC3)c(C)c(N3CCC(N4CCOCC4)CC3)n2)c1` (some centres unmarked) [Example 367-1a] reads 5 to 10 µM. For the compound `CNCC(O)COc1cc(Cl)cc(-c2nc(C(=O)OC)cc(N(C)C3CCOCC3)n2)c1` (centres unmarked) [Example 623-1a], the IC50 (Homo sapiens, RKO) fell in the range of 10 to 20 µM. Still for that read-out and setting: then `CNCC(O)COc1ccc(Cl)c(-c2nc(NC[C@H]3COCCN3C3COC3)c(C)c(-c3c(C)noc3C)n2)c1` (some centres unmarked) [Example 2-3], with under 5 µM.

`CNCC(O)COc1cccc(-c2nc(-c3c(C)noc3C)c(C)c(N3CCC4(CC3)CN(S(C)(=O)=O)C4)n2)c1` (centres unmarked) [Example 179-1a]: the IC50 (Homo sapiens, RKO) is under 5 µM.

Regarding `CNC[C@@H](O)COc1ccc(Cl)c(-c2nc(-c3c(C)noc3C)c(Cl)c(N3Cc4nccnc4C3)n2)c1` [Example 225-3], for the setting “Homo sapiens, RKO”, the IC50 is under 5 µM. Under “Homo sapiens, RKO”, `CNCC(O)COc1cccc(-c2nc(N3CCC4(CCO4)CC3)cc(N(C)C3CCOCC3)n2)c1` (centres unmarked) [Example 579-1a] gave an IC50 of 10 to 20 µM.

Consider `CNC[C@@H](O)COc1ccc(Cl)c(-c2nc(NC3CC(COC)C3)c(C)c(-c3c(C)noc3C)n2)c1` (some centres unmarked) [Example 219-3], for which the 50% inhibitory concentration (IC50) (Homo sapiens, RKO) is under 5 µM. With `CNCC(O)COc1cccc(-c2nc(-c3c(C)noc3C)cc(N3CCN(C4CC4)CC3)n2)c1` (centres unmarked) [Example 30-1a], the half-inhibitory concentration (IC50) (Homo sapiens, RKO) is under 5 µM. The same measure, in the same setting: the result for `CNCC(O)COc1cccc(-c2nc(NC3CCC[C@H]3O)c(C)c(-c3c(C)noc3C)n2)c1` (some centres unmarked) [Example 219-1a] reads under 5 µM. Under “Homo sapiens, RKO”, `CNCC(O)COc1cccc(-c2nc(N3CCN(C)C(=O)C3)cc(N(C)C3CCOCC3)n2)c1` (centres unmarked) [Example 549-1a] registered an IC50 of 10 to 20 µM. Still for that read-out and setting: the result for `CNCC(O)COc1cccc(-c2nc(-c3c(C)noc3C)c(C)c(N3CCC4(CC3)CN(C(=O)OC)C4)n2)c1` (centres unmarked) [Example 251-1a] reads under 5 µM. Same read-out and setting: the result for `CNCC(O)COc1cccc(-c2nc(NC3CCOC3)c(C)c(N3CCNC[C@H]3C)n2)c1` (some centres unmarked) [Example 352-1a] reads 10 to 20 µM; that for `CNCC(O)COc1cccc(-c2nc(NC3CCOC3)c(C)c(N3CCN(CCF)CC3)n2)c1` (centres unmarked) [Example 446-1a], under 5 µM; that for `CNCC(O)COc1cccc(-c2nc(N[C@@H]3CCOC3)c(C)c(N3CC[C@@H](N(C)C)C3)n2)c1` (some centres unmarked) [Example 392-1a], 5 to 10 µM. The same measure, in the same setting: the result for `CNCC(O)COc1cccc(-c2nc(NC3CCN(C(=O)OC)C3)c(C)c(-c3c(C)noc3C)n2)c1` (centres unmarked) [Example 186-1a] reads under 5 µM; that for `CNCC(O)COc1ccc(Cl)c(-c2nc(NCC3COCCO3)c(C)c(-c3c(C)noc3C)n2)c1` (centres unmarked) [Example 41-3], under 5 µM. As to `CNCC(O)COc1cccc(-c2nc(N[C@@H]3CCOC3)c(C)c(N3CCC[C@@H](O)C3)n2)c1` (some centres unmarked) [Example 358-1a], for the setting “Homo sapiens, RKO”, the half-inhibitory concentration (IC50) was 10 to 20 µM. Turning to `CNCC(O)COc1cccc(-c2nc(-c3c(C)noc3C)cc(N3CCN(C)CC3)n2)c1` (centres unmarked) [Example 19-1a], the IC50 (Homo sapiens, RKO) was 10 to 20 µM.

Compound `CNC[C@@H](O)COc1ccc(F)c(-c2nc(-c3c(C)noc3C)c(C)c(N3CC4(CCN(CC(F)F)CC4)C3)n2)c1` [Example 280-3] registered an IC50 (Homo sapiens, RKO) of under 5 µM. As to `CNCC(O)COc1cccc(-c2nc(NCC3CCOCC3)c(F)c(-c3c(C)noc3C)n2)c1` (centres unmarked) [Example 143-1a], for the setting “Homo sapiens, RKO”, the IC50 is under 5 µM. For the setting “Homo sapiens, RKO”, `CNCC(O)COc1cccc(-c2nc(NC3CCN(C4COC4)CC3)c(C)c(-c3c(C)noc3C)n2)c1` (centres unmarked) [Example 263-1a] displayed an IC50 of under 5 µM. As to `CNCC(O)COc1cccc(-c2nc(N[C@H]3C[C@@H](O)C3)cc(-c3c(C)noc3C)n2)c1` (some centres unmarked) [Example 41-1a], the IC50 (Homo sapiens, RKO) lay in the range of 10 to 20 µM.

In the case of `CNC[C@@H](O)COc1ccc(Cl)c(-c2nc(-c3c(C)noc3C)c(C)c(N3Cc4[nH]nc(C)c4C3)n2)c1` [Example 224-3], the IC50 (Homo sapiens, RKO) is under 5 µM. Compound `CCOC(=O)N1CC[C@H](Nc2nc(-c3cc(OC[C@H](O)CNC)ccc3Cl)nc(-c3c(C)noc3C)c2Cl)C1` [Example 151-3] yielded an IC50 (Homo sapiens, RKO) of under 5 µM. Same read-out and setting: the result for `CNC[C@@H](O)COc1ccc(F)c(-c2nc(-c3c(C)noc3C)c(C)c(N3Cc4cc(Cl)cnc4C3)n2)c1` [Example 185-3] reads under 5 µM; that for `CNCC(O)COc1cccc(-c2nc(N[C@@H]3CCOC3)c(C)c(-c3cncnc3)n2)c1` (some centres unmarked) [Example 350-1a], 10 to 20 µM. With `CNC[C@@H](O)COc1ccc(Cl)c(-c2nc(-c3c(C)noc3C)c(C)c(N3Cc4c(C)nn(C)c4C3)n2)c1` [Example 237-3], the IC50 was under 5 µM. Regarding `CNCC(O)COc1ccc(Cl)c(-c2nc(NC3CCOCC3)c(C)c(-c3c(C)nsc3C)n2)c1` (centres unmarked) [Example 97-3], the 50% inhibitory concentration (IC50) (Homo sapiens, RKO) was under 5 µM. Same read-out and setting: then `CNCC(O)COc1cccc(-c2nc(N[C@@H]3CCOC3)c(C)c(N3CCC4(CCNCC4)CC3)n2)c1` (some centres unmarked) [Example 429-1a], with 10 to 20 µM; and `CNC[C@@H](O)COc1ccc(Cl)c(-c2nc(-c3c(C)noc3C)c(C)c(N3Cc4nc(C)sc4C3)n2)c1` [Example 192-3], with under 5 µM; and `CNCC(O)COc1cc(N)cc(-c2nc(NC3CCOCC3)c(C)c(-c3c(C)noc3C)n2)c1` (centres unmarked) [Example 74-1a], with 5 to 10 µM. Same read-out and setting: then `CNCC(O)COc1cccc(-c2nc(-c3c(C)noc3C)c(C)c(N3C[C@@H]4C[C@H]3CN4C)n2)c1` (some centres unmarked) [Example 84-1a], with under 5 µM; and `CNCC(O)COc1cccc(-c2nc(NCC3(N4CC(F)(F)C4)CCOCC3)c(C)c(-c3c(C)noc3C)n2)c1` (centres unmarked) [Example 302-1a], with under 5 µM; and `CNCC(O)COc1cccc(-c2nc(N3CCNC(=O)C3)cc(N(C)C3CCOCC3)n2)c1` (centres unmarked) [Example 575-1a], with 10 to 20 µM. On to `CNCC(O)COc1cccc(-c2nc(NC3CCOCC3)cc(-c3ccc4c(c3)OCCO4)n2)c1` (centres unmarked) [Example 657-1a], for which the half-maximal inhibitory concentration (IC50) (Homo sapiens, RKO) is at least 20 µM.

Take `CNCC(O)COc1cccc(-c2nc(NC3CCCN(CC(F)F)C3)c(C)c(-c3c(C)noc3C)n2)c1` (centres unmarked) [Example 203-1a]: where the note is “Homo sapiens, RKO”, the concentration for half-maximal inhibition (IC50) was under 5 µM. Regarding `CNCC(O)COc1cccc(-c2nc(-c3c(C)noc3C)c(C)c(N3CCC4(CC3)CN(C(=O)N(C)C)C4)n2)c1` (centres unmarked) [Example 252-1a], under “Homo sapiens, RKO”, the IC50 is under 5 µM. Where the note is “Homo sapiens, RKO”, `CNCC(O)COc1cccc(-c2nc(N[C@@H]3CCOC3)c(C)c(N3CC[C@@H](c4cccnc4)C3)n2)c1` (some centres unmarked) [Example 467-1a] gave an IC50 of under 5 µM. Compound `CNC[C@@H](O)COc1ccc(Cl)c(-c2nc(N[C@H]3C[C@H](OC)C3)c(C)c(-c3c(C)noc3C)n2)c1` [Example 143-3] gave a concentration for half-maximal inhibition (IC50) (Homo sapiens, RKO) of under 5 µM. With `CNCC(O)COc1cccc(-c2nc(N[C@@H]3CCOC3)c(C)c(N3CCC[C@H]4CN(Cc5ccccc5)C[C@H]43)n2)c1` (some centres unmarked) [Example 378-1a], the IC50 (Homo sapiens, RKO) is 10 to 20 µM. For `CNC[C@@H](O)COc1ccc(Cl)c(-c2nc(-c3c(C)noc3C)c(C)c(N3CCC4(CN(C(=O)OC)C4)C3)n2)c1` [Example 177-3], for the setting “Homo sapiens, RKO”, the IC50 was under 5 µM. In the case of `CNCC(O)COc1cccc(-c2nc(N[C@H]3CCOC[C@@H]3F)c(C)c(-c3c(C)noc3C)n2)c1` (some centres unmarked) [Example 279-1a], the IC50 (Homo sapiens, RKO) is under 5 µM.

Take `CNCC(O)COc1cccc(-c2nc(-c3c(C)noc3C)c(C)c(N3Cc4cccnc4C3)n2)c1` (centres unmarked) [Example 35-3]: for the setting “Homo sapiens, RKO”, the IC50 is under 5 µM.

`CNC[C@H](O)COc1cccc(-c2nc(-c3cnc4cnccn34)cc(N(C)C3CCOCC3)n2)c1` [Example 486-1a]: the IC50 (Homo sapiens, RKO) is under 5 µM.

Turning to `CCC1(CNc2nc(-c3cccc(OCC(O)CNC)c3)nc(-c3c(C)noc3C)c2C)CCOCC1` (centres unmarked) [Example 141-1a], the concentration for half-maximal inhibition (IC50) (Homo sapiens, RKO) was under 5 µM. `CCO[C@@H]1CCC[C@@H]1N(CC)c1nc(-c2cc(OC[C@H](O)CNC)ccc2Cl)nc(-c2c(C)noc2C)c1C` [Example 254-3] had an IC50 (Homo sapiens, RKO) of 5 to 10 µM.

On to `CNCC(O)COc1cccc(-c2nc(-c3scnc3C)cc(N(C)C3CCOCC3)n2)c1` (centres unmarked) [Example 495-1a], for which the IC50 (Homo sapiens, RKO) was under 5 µM.

The values are drawn from US10633389B2, “CARM1 inhibitors and uses thereof” (Epizyme, Inc., priority 2013, dated 2020).
